These results are taken from patent US9388137B2, “Quaternized amines as sodium channel blockers” (Purdue Pharma L.P., priority 2011, dated 2016).

For one experiment, the target named is human Nav1.7 (Homo sapiens (Human), UniProt Q15858). The experiment can be described thus: FLIPR sodium dye assay for sodium channel blocking activity. Type of experiment: cell-based. As to conditions: recombinant Nav1.7/HEK293 cells.
In another experiment the target is hNav1.7 (Homo sapiens (Human), UniProt Q15858). Put plainly: Electrophysiology (EP) assay, whole-cell patch clamp. It is filed as cell-based. The settings on record: hNav1.7 HEK-293 cells. On the technique in general: The patch-clamp technique gives a direct electrical read-out from membranes.
Sequence of hNav1.7 (Q15858 other isoform, or with tags, fused parts or gaps): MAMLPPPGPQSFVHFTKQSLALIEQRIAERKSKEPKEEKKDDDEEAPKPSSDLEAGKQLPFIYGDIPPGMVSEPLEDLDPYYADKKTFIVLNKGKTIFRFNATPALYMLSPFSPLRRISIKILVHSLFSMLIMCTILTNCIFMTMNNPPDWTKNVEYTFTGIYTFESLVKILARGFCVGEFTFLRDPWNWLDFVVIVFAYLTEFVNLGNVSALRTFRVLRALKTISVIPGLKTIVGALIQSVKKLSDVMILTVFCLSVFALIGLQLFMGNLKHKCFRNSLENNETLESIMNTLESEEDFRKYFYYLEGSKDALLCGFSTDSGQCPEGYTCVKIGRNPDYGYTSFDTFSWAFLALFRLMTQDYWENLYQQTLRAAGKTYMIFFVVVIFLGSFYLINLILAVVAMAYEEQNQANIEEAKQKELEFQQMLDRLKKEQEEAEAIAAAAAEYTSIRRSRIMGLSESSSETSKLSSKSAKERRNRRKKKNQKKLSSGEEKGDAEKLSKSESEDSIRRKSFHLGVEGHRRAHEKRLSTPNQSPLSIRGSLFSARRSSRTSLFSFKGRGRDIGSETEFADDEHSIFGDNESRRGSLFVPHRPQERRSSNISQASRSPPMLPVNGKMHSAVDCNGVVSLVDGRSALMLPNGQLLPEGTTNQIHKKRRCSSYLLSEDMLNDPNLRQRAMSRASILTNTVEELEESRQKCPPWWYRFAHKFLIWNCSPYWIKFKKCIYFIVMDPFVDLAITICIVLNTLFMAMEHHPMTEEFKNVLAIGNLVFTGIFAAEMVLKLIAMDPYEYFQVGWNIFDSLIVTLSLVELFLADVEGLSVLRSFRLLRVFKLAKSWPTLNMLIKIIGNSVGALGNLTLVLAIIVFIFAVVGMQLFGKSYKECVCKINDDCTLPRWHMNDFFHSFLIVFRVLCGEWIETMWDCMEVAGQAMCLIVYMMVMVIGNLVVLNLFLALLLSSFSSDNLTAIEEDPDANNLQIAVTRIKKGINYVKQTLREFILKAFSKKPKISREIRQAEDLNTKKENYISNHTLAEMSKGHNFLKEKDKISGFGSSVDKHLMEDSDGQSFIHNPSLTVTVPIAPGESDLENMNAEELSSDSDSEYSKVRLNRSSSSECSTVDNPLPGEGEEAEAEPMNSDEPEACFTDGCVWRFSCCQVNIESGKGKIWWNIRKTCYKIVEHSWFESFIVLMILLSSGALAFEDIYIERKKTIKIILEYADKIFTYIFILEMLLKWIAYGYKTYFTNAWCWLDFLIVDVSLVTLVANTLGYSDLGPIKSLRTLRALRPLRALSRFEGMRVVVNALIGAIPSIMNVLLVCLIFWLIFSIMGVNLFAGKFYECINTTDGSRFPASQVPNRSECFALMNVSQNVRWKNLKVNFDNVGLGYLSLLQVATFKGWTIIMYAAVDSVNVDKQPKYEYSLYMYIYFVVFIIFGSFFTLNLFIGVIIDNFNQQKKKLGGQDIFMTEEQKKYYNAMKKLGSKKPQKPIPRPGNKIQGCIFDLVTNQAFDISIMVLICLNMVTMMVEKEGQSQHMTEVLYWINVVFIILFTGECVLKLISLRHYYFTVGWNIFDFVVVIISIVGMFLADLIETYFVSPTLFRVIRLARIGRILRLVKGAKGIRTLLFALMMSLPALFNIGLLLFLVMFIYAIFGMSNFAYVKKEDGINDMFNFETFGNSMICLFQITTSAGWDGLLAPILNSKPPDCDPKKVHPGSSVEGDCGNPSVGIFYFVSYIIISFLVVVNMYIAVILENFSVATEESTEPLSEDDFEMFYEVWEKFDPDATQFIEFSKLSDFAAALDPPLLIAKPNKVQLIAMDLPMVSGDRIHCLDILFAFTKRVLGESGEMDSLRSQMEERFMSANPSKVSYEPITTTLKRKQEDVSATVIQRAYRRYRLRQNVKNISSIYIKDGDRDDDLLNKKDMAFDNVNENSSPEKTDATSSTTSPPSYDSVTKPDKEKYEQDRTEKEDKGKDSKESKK

Sequence of human Nav1.7 (Q15858 other isoform, or with tags, fused parts or gaps): as above

The IC50 is the concentration that inhibits the measured activity by half. `Cc1cc(C(=O)NCC[N+]2(C)CCCCC2)cc(-c2ccc(Oc3ccc(F)cc3)cc2)n1` [Example 1, 1-[2-({2-[4-(4-fluoro-phenoxy)-phenyl]-6-methyl-pyridine-4-carbonyl}-amino)-ethyl]-1-methyl-piperidinium]: at human Nav1.7, the IC50 turned out to be 0.872 ± 0.255 µM. Besides, the Ki on hNav1.7 (affinity for the inactivated state of the channel, read-out: Nav1.7 Activity EP assay Ki) was found to be 6.03 ± 0.91 µM. In addition, the Kd at hNav1.7 (dissociation constant for binding to the resting state of the channel, read-out: Nav1.7 Activity EP assay Kr) is 125 ± 23.4 µM.

In the case of `Cc1cc(C(=O)NCC[N+]2(C)CCOCC2)cc(-c2ccc(Oc3ccc(F)cc3)cc2)n1` [Example 2, 4-[2-({2-[4-(4-fluoro-phenoxy)-phenyl]-6-methyl-pyridine-4-carbonyl}-amino)-ethyl]-4-methyl-morpholin-4-ium], at human Nav1.7, the IC50 is 1.88 ± 0.287 µM.

In the case of `Cc1cc(C(=O)N2CCC([N+]3(C)CCCC3)CC2)cc(-c2ccc(Oc3ccc(F)cc3)cc2)n1` [Example 3, 1-(1-{2-[4-(4-fluoro-phenoxy)-phenyl]-6-methyl-pyridine-4-carbonyl}-piperidin-4-yl)-1-methyl-pyrrolidinium], the IC50 on human Nav1.7 was greater than 20 µM.

Turning to `Cc1cc(C(=O)NCc2ccc([N+](C)(C)C)cc2)cc(-c2ccc(Oc3ccc(F)cc3)cc2)n1` [Example 4, {4-[({2-[4-(4-fluoro-phenoxy)-phenyl]-6-methyl-pyridine-4-carbonyl}-amino)-methyl]-phenyl}-trimethyl-ammonium], the IC50 at human Nav1.7 was found to be 3.99 ± 0.289 µM.

Take `Cc1cc(C(=O)NCC[N+]2(C)CCCC2)cc(-c2ccc(Oc3ccc(F)cc3)cc2)n1` [Example 5, 1-[2-({2-[4-(4-fluoro-phenoxy)-phenyl]-6-methyl-pyridine-4-carbonyl}-amino)-ethyl]-1-methyl-pyrrolidinium]: the half-maximal inhibitory concentration (IC50) on human Nav1.7 amounted to 2.9 ± 0.375 µM.

For `Cc1cc(C(=O)NCC[N+](C)(C)C)cc(-c2ccc(Oc3ccc(F)cc3)cc2)n1` [Example 6, [2-({2-[4-(4-fluoro-phenoxy)-phenyl]-6-methyl-pyridine-4-carbonyl}-amino)-ethyl]-trimethyl-ammonium], on human Nav1.7, the IC50 came out at 6.52 ± 0.466 µM.

`Cc1cc(C(=O)N2CC[N+](C)(C)CC2)cc(-c2ccc(Oc3ccc(F)cc3)cc2)n1` [Example 7, 4-{2-[4-(4-Fluoro-phenoxy)-phenyl]-6-methyl-pyridine-4-carbonyl}-1,1-dimethyl-piperazin-1-ium]: at human Nav1.7, the IC50 was greater than 20 µM.

In the case of `Cc1cc(C(=O)N(C)C2CC[N+](C)(C)CC2)cc(-c2ccc(Oc3ccc(F)cc3)cc2)n1` [Example 8, 4-({2-[4-(4-Fluoro-phenoxy)-phenyl]-6-methyl-pyridine-4-carbonyl}-methyl-amino)-1,1-dimethyl-piperidinium], the IC50 at human Nav1.7 is greater than 20 µM.
